# Patent US6303591A, “21-hydroxy-6,19-oxidoprogesterone (21OH-6OP) and its use as medicament for treating excess of glucocorticoids” (Applied Research Systems ARS Holding NV, priority 1997, dated 2001)
# Entries after “also recorded” stand apart in the source; their conditions may differ.
# Assays:
# [1] = target: T1, MR from rat kidney (kidney cytosol) (Rattus norvegicus, UniProt P22199); test: competition with (^3 H)-ALDO for MR, rat kidney cytosol; format: binding
# T1 sequence (P22199 1-981): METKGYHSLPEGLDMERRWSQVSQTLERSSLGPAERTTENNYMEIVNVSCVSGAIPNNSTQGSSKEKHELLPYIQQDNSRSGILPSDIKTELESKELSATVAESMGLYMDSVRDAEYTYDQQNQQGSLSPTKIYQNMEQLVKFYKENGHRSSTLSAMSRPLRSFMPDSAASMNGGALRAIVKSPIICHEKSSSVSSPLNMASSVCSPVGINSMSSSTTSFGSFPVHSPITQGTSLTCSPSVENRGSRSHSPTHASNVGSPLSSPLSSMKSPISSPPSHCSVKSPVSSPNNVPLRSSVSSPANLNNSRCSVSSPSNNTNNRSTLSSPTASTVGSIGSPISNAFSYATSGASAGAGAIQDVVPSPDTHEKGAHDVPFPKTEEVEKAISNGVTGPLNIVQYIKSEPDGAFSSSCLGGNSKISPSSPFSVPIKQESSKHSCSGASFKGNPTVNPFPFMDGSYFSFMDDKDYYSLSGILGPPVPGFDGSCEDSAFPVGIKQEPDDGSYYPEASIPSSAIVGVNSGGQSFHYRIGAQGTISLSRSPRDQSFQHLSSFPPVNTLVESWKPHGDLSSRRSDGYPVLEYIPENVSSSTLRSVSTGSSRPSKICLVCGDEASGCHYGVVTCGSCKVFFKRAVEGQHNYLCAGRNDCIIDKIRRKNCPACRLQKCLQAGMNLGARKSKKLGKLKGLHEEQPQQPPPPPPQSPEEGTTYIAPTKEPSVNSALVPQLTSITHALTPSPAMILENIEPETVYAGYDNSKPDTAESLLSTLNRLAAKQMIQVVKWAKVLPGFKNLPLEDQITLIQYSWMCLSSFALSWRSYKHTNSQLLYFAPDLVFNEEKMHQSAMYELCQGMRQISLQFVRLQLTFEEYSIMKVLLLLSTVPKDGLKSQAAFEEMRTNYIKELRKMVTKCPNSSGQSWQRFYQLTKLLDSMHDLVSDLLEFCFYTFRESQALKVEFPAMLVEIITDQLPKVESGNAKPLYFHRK
# Description: Binding Assay: Adrenalectomized male Sprague-Dawley rats were bled to death by heart puncture. Cold 0.9% NaCI was injected profusely through the aorta until organs were completely blanched. Thymuses were used as a source of GR and kidneys as a source of MR. Homogenization and incubation conditions were performed as previously described, (14) and (15), respectively. Briefly, homogenates performed in cold TEGM buffer at pH 7.4 (0.1 M Tris-HCl, 10 mM EDTA, 10 mM α-mercaptoethanol, 20 mM Na2 MoO4, 25% glycerol, 0.1 mM PMSF, 2.0 TIU/ml aprotinin and 1 mg% Leupeptin) were centrifuged at 37,000 rev. for 30 min at 0° C. Supernatants from this centrifugation are referred to as "cytosol". […] (^3 H)-P4 binding to uterus PR was assayed on immature female rats according to Jordan et al (16).
# Relative binding affinity (RBA) for partially purified CBG was determined by steroid competition for (^3 H)-B binding as described previously (14).
# The displacement curve of 6,19-oxidoprogesterone is included for comparative purposes.
# [2] = tested on: tyrosine aminotransferase (TAT) induction in rat hepatocytes; test: TAT induction in rat hepatocytes (agonism); format: cell-based; details: FIGS. 3-B and 4 (hatched bars), no agonist added
# Description: FIG. 3: Biological Properties of 21OH-6OP: A) Glycogen storage in vivo: 100 μg steroid/100 g body weight of male rats were injected as indicated in Example 1. Liver glycogen was purified and quantified with Krisman's reagent (17). Controls were injected with vehicle. Results are expressed as means±SEM (n=6). (*): different from controls P<0.02. B) TAT induction in vitro: rat hepatocytes were incubated for 5 h in HAM-F12 medium in the presence of 100 nM steroid and TAT activity was measured. Results are expressed as percentage of enzyme activity (means±SEM, n=4) over controls incubated in the presence of vehicle. (*) different from controls P<0.01. C) Sodium-retaining activity: adrenalectomized rats were treated with the indicated dose of steroids. Results are expressed as the ratio of sodium-excretion rates of steroid-injected animals to the excretion rates of rats injected with vehicle.
# (§1) Hatched bars represent incubations performed in the presence of vehicle instead of agonist.
# (§2) Bioassay : Liver glycogen deposition was measured on adrenalectoniized male Sprague-Dawley rats (180-220 g) as follows: steroids were dissolved in ethanol/propylene glycol/0.9% NaCl solution (3:3:34) and 100 μg steroid/l00 g body weight were injected i.m. the previous night. On the morning of the experiment this dose was reinjected intraperitoneally. Three hours later the rats were killed by cervical dislocation and livers were immediately removed. Glycogen purification and quantification were carried out according to Krisman's method (17). Na^+ -retaining properties were measured as described (5). Tyrosine aminotransferase (TAT) was induced in rat hepatocytes isolated by the procedure of Fry et al (18). TAT activity was determined according to Granner and Tomkins (19).
# (§3) The basal TAT activity in hepatocytes, denominated control in the figure, was measured by adding vehicle (final concentration: 0.2% ethanol) to the culture. […] 2.5 μM 21OH-6OP inhibits 80% of TAT induction when concubated with B or DXM.
# [3] = tested on: TAT induction in hepatocytes (GR); test: antagonism of TAT induction by DXM or B in hepatocytes; format: cell-based, rat
# Description: as §1, §2, §3
compound,measurement,setting,value
"C[C@]12CC[C@H]3[C@@H](C[C@H]4OC[C@@]35CCC(=O)C=C45)[C@@H]1CC[C@@H]2C(=O)CO [21OH-6OP, 21-hydroxy-6,19-oxidoprogesterone]",competition with (^3 H)-ALDO for MR / interaction with MR,"[1]; kidney cytosol, 5 nM (^3 H)-ALDO, 1.0 μM RU28362","unable to cross-react with uterus-PR or kidney-MR; also recorded: does not compete efficiently with (^3 H)-ALDO for MR, even when a thousand fold excess was added; also recorded: no ability to interact with MR nor PR"
same,change of binding to MR by 21-hydroxyl introduction,"[1]; vs 6,19-oxidopregnane skeleton, panel 2-C","does not improve the binding of the 6,19-oxidopregnane skeleton to MR"
same,TAT induction (in words),[2],neither 6OP nor 21OH-6OP evoke these responses; also recorded: Neither 6OP nor 21OH-6OP facilitate TAT induction
same,inhibition of TAT induction by B,[3]; 2.5 μM steroid vs 100 nM B,80%
same,inhibition of TAT induction by DXM,[3]; 2.5 μM steroid vs 100 nM DXM,80%
same,antagonism of TAT induction by B (in words),"[3]; 2.5 μM steroid, 100 nM B",shows antagonist effect on TAT induction; also recorded: antagonize TAT induction by corticosterone and decamethasone; also recorded: significantly inhibited
same,antagonism of TAT induction by DXM (in words),"[3]; 2.5 μM steroid, 100 nM DXM",shows antagonist effect on TAT induction; also recorded: antagonize TAT induction by corticosterone and decamethasone; also recorded: significantly inhibited
